Measurements reported in the supplement of paper PMC11208160.

assay: recombinant UMI read abundance after kanamycin selection (control-corrected) (log10(CPM+1)); higher = more efficient recombination; extreme values may be limits of the assay; sequences stand for … in AGTGCAGAGAAAATCGGCCAGTTTTCTCTGCCTGCAGTCCGCATGCCGTGGGACCCCTTGGGTTCTAACCTGTTGCCTAGATTTATGCAGCGGACTGCCTTTCTCCCAAAGTGATAAACCGG…AGGTTGGTTTCACT; site = the 11-nt donor
Description: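 Pooled E. coli donor-specificity screen for the IS621 bridge recombinase. Each library member carries a reprogrammed 11-nt donor and a full-length LE bridge RNA expressed in cis from the natural promoter, with a paired donor-binding loop (8-nt LDG + 4-nt RDG) and a target-binding loop fixed to T5. It is co-electroporated with a T5 target plasmid; recombinase is induced with 0.07 mM IPTG and recombinants are selected on kanamycin. UMIs are counted as CPM, averaged over two biological replicates and corrected by the unselected control. Molecule = full bridge RNA written as DNA, built from the T5 scaffold: LDG = donor specificity nt 1-8, RDG = reverse complement of nt 8-11.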
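Further: IS621 bridge recombinase in Escherichia coli cells against a fixed T5 target plasmid.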

| Sequence | recombinant UMI read abundance (log10) |
| --- | --- |
| AAGCCTGCATGGACCGGTTTTCCCGGTAATCCGTATTTGTA (site AAGCCTGCTTA) | 0.811 |
| AAGCGCGCATGGACCGGTTTTCCCGGTAATCCGTATTTGGG (site AAGCACGCTCC) | 0.0182 |
| AAGCGCGCATGGACCGGTTTTCCCGGTAATCCGTATTTGGG (site AAGCCCGCTCC) | 0.0103 |
| AAGCGCGCATGGACCGGTTTTCCCGGTAATCCGTATTTGGG (site AAGCGCGCTCC) | 0.214 |
| AAGCGCGCATGGACCGGTTTTCCCGGTAATCCGTATTTGGG (site AAGCTCGCTCC) | 0.0124 |
| AAGCGTCCATGGACCGGTTTTCCCGGTAATCCGTATTTGAT (site AAACGTCCTAT) | 0.245 |
| AAGCGTCCATGGACCGGTTTTCCCGGTAATCCGTATTTGAT (site AACCGTCCTAT) | 0.281 |
| AAGCGTCCATGGACCGGTTTTCCCGGTAATCCGTATTTGAT (site AAGCGTCCTAT) | 1.17 |
| AAGCGTCCATGGACCGGTTTTCCCGGTAATCCGTATTTGAT (site AATCGTCCTAT) | 0.017 |
| AAGCTAGCATGGACCGGTTTTCCCGGTAATCCGTATTTGAA (site AAGCTAGCTTT) | 2.09 |
| AAGCTAGCATGGACCGGTTTTCCCGGTAATCCGTATTTGAA (site CAGCTAGCTTT) | 1.37 |
| AAGCTAGCATGGACCGGTTTTCCCGGTAATCCGTATTTGAA (site GAGCTAGCTTT) | 0.00246 |
| AAGCTAGCATGGACCGGTTTTCCCGGTAATCCGTATTTGAA (site TAGCTAGCTTT) | 1.48 |
| AAGCTCGCATGGACCGGTTTTCCCGGTAATCCGTATTTGGG (site AAGCACGCTCC) | 0.0201 |
| AAGCTCGCATGGACCGGTTTTCCCGGTAATCCGTATTTGGG (site AAGCCCGCTCC) | 0.0313 |
| AAGCTCGCATGGACCGGTTTTCCCGGTAATCCGTATTTGGG (site AAGCGCGCTCC) | 0.0107 |
| AAGCTCGCATGGACCGGTTTTCCCGGTAATCCGTATTTGGG (site AAGCTCGCTCC) | 0.0176 |
| AAGGATCCATGGACCGGTTTTCCCGGTAATCCGTATTTGTT (site AAGGATCCTAA) | 1.19 |
| AAGGGCTCATGGACCGGTTTTCCCGGTAATCCGTATTTGGA (site AAGGGCTCTTC) | 1.96 |
| AAGGTAACATGGACCGGTTTTCCCGGTAATCCGTATTTGCT (site AAAGTAACTAG) | 2.59 |
| AAGGTAACATGGACCGGTTTTCCCGGTAATCCGTATTTGCT (site AACGTAACTAG) | 0.731 |
| AAGGTAACATGGACCGGTTTTCCCGGTAATCCGTATTTGCT (site AAGGTAACTAG) | 2.73 |
| AAGGTAACATGGACCGGTTTTCCCGGTAATCCGTATTTGCT (site AATGTAACTAG) | 1.43 |
| AAGGTTACATGGACCGGTTTTCCCGGTAATCCGTATTTGAA (site AAGGTTACTTT) | 2.53 |

| Sequence | recombinant UMI read abundance (log10) |
| --- | --- |
| AAGTAGGCATGGACCGGTTTTCCCGGTAATCCGTATTTGCA (site AAGTAGGCTTG) | 2.63 |
| AAGTCGTCATGGACCGGTTTTCCCGGTAATCCGTATTTGCG (site AAGTCGTCTCG) | 1.19 |
| AAGTGAGCATGGACCGGTTTTCCCGGTAATCCGTATTTGGA (site AAGTGAGCTTC) | 0.812 |
| AATAATGCATGGACCGGTTTTCCCGGTAATCCGTATTTGGA (site AATAATGCTTC) | 1.06 |
| AATAATGCATGGACCGGTTTTCCCGGTAATCCGTATTTGGA (site AATCATGCTTC) | 0.217 |
| AATAATGCATGGACCGGTTTTCCCGGTAATCCGTATTTGGA (site AATGATGCTTC) | 0.361 |
| AATAATGCATGGACCGGTTTTCCCGGTAATCCGTATTTGGA (site AATTATGCTTC) | 0.707 |
| AATACTTCATGGACCGGTTTTCCCGGTAATCCGTATTTGGA (site AATACTTCTTC) | 1.81 |
| AATAGACCATGGACCGGTTTTCCCGGTAATCCGTATTTGAT (site AATAGACCTAT) | 0 |
| AATAGTACATGGACCGGTTTTCCCGGTAATCCGTATTTGCG (site AATAGTACTCG) | 0.989 |
| AATCAACCATGGACCGGTTTTCCCGGTAATCCGTATTTGGT (site AATCAACCTAC) | 0.00613 |
| AATCAATCATGGACCGGTTTTCCCGGTAATCCGTATTTGGC (site AATCAATCTGC) | 2.07 |
| AATCATTCATGGACCGGTTTTCCCGGTAATCCGTATTTGCT (site AATCATTCTAG) | 2.27 |
| AATCCTCCATGGACCGGTTTTCCCGGTAATCCGTATTTGGA (site AATCCTCCTTC) | 0 |
| AATCGTCCATGGACCGGTTTTCCCGGTAATCCGTATTTGAT (site AAACGTCCTAT) | 0.00356 |
| AATCGTCCATGGACCGGTTTTCCCGGTAATCCGTATTTGAT (site AACCGTCCTAT) | 0.0167 |
| AATCGTCCATGGACCGGTTTTCCCGGTAATCCGTATTTGAT (site AAGCGTCCTAT) | 0.432 |
| AATCGTCCATGGACCGGTTTTCCCGGTAATCCGTATTTGAT (site AATCGTCCTAT) | 0.306 |
| AATCTACCATGGACCGGTTTTCCCGGTAATCCGTATTTGAG (site AATCTACCTCT) | 0.0184 |
| AATCTCGCATGGACCGGTTTTCCCGGTAATCCGTATTTGCG (site AATCTCGCTCG) | 0.0146 |
| AATGCCTCATGGACCGGTTTTCCCGGTAATCCGTATTTGAG (site AATGCCTCTCT) | 0.693 |
| AATGTATCATGGACCGGTTTTCCCGGTAATCCGTATTTGCT (site AATGTAACTAG) | 0.796 |
| AATGTATCATGGACCGGTTTTCCCGGTAATCCGTATTTGCT (site AATGTACCTAG) | 0.03 |
| AATGTATCATGGACCGGTTTTCCCGGTAATCCGTATTTGCT (site AATGTAGCTAG) | 0 |

| Sequence | recombinant UMI read abundance (log10) |
| --- | --- |
| AATGTATCATGGACCGGTTTTCCCGGTAATCCGTATTTGCT (site AATGTATCTAG) | 2.56 |
| AATTAGGCATGGACCGGTTTTCCCGGTAATCCGTATTTGGA (site AATTAAGCTTC) | 0.133 |
| AATTAGGCATGGACCGGTTTTCCCGGTAATCCGTATTTGGA (site AATTACGCTTC) | 0.011 |
| AATTAGGCATGGACCGGTTTTCCCGGTAATCCGTATTTGGA (site AATTAGGCTTC) | 0.746 |
| AATTAGGCATGGACCGGTTTTCCCGGTAATCCGTATTTGGA (site AATTATGCTTC) | 0.317 |
| AATTATTCATGGACCGGTTTTCCCGGTAATCCGTATTTGGA (site AATTATACTTC) | 0.554 |
| AATTATTCATGGACCGGTTTTCCCGGTAATCCGTATTTGGA (site AATTATCCTTC) | 0.553 |
| AATTATTCATGGACCGGTTTTCCCGGTAATCCGTATTTGGA (site AATTATGCTTC) | 0.0186 |
| AATTATTCATGGACCGGTTTTCCCGGTAATCCGTATTTGGA (site AATTATTCTTC) | 2.28 |
| AATTCGTCATGGACCGGTTTTCCCGGTAATCCGTATTTGAA (site AATTCGTCTTT) | 0.559 |
| AATTGTGCATGGACCGGTTTTCCCGGTAATCCGTATTTGGA (site AATTATGCTTC) | 0.773 |
| AATTGTGCATGGACCGGTTTTCCCGGTAATCCGTATTTGGA (site AATTCTGCTTC) | 0.00901 |
| AATTGTGCATGGACCGGTTTTCCCGGTAATCCGTATTTGGA (site AATTGTGCTTC) | 0.895 |
| AATTGTGCATGGACCGGTTTTCCCGGTAATCCGTATTTGGA (site AATTTTGCTTC) | 0.0805 |
| AATTTAGCATGGACCGGTTTTCCCGGTAATCCGTATTTGTC (site AATTTAGCTGA) | 0.582 |
| AATTTTGCATGGACCGGTTTTCCCGGTAATCCGTATTTGGA (site AATTATGCTTC) | 0.473 |
| AATTTTGCATGGACCGGTTTTCCCGGTAATCCGTATTTGGA (site AATTCTGCTTC) | 0.118 |
| AATTTTGCATGGACCGGTTTTCCCGGTAATCCGTATTTGGA (site AATTGTGCTTC) | 0.154 |
| AATTTTGCATGGACCGGTTTTCCCGGTAATCCGTATTTGGA (site AATTTTGCTTC) | 1 |
| ACAAAGACATGGACCGGTTTTCCCGGTAATCCGTATTTGCA (site ACAAAGACTTG) | 3.1 |
| ACAAAGACATGGACCGGTTTTCCCGGTAATCCGTATTTGCA (site AGGAAGACTTG) | 2.33 |
| ACAAAGCCATGGACCGGTTTTCCCGGTAATCCGTATTTGGC (site ACAAAGCCTGC) | 0 |
| ACAAGAACATGGACCGGTTTTCCCGGTAATCCGTATTTGTC (site ACAAGAACTGA) | 1.75 |
| ACAAGAACATGGACCGGTTTTCCCGGTAATCCGTATTTGTC (site ACACGAACTGA) | 0.00498 |
